In patent US7736909B2, “Methods and compositions comprising capture agents” (Board of Regents, the University of Texas System, priority 2003, dated 2010):
Like-named read-outs stand apart in the source and are kept apart here. Non-standard residues stand in square brackets, D forms with d. Residues, ends and D or L forms follow the SMILES beside them. N(4-Sulfamoylphenethyl)Gly = NS(=O)(=O)c1ccc(CCNCC(=O)O)cc1; Gly(N-piperonyl) = O=C(O)CNCc1ccc2c(c1)OCO2; Gly(N-CH2CH2OH) = O=C(O)CNCCO; Nlys = NCCCCNCC(=O)O

How the values were obtained:
MBP-Mdm2 [1] = target: T1, MBP-Mdm2 (UniProt P0AEX9+Q00987); experiment: isothermal titration calorimetry (ITC); type: binding, human
T1 construct: The domain of the human Mdm2 protein represented by residues 1-188 is a structurally characterized monomer; made in house; host or cells: E. coli BL21-RIL
T1 sequence (Q00987 whole entry, looked up, other chains not shown, the tested form may be a part): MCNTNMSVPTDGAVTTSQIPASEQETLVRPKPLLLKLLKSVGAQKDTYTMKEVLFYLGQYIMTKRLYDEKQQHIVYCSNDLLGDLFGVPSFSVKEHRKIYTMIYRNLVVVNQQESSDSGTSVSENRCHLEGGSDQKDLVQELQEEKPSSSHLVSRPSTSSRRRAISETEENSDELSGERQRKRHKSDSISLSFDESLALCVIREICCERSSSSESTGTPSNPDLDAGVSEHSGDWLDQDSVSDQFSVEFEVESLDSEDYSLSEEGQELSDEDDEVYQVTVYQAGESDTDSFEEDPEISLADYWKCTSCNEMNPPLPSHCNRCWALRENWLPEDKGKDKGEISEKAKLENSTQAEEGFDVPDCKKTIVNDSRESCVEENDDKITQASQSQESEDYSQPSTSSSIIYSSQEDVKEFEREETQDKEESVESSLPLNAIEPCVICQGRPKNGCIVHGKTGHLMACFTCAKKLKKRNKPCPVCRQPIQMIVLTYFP
Experimental: (§1) Isothermal titration calorimetry (ITC). ITC experiments were conducted on a MicroCal VP-ITC instrument. For the titration, 70 μM MBP-hmdm2 or 30 μM GST in PBS+10% DMSO was taken in the sample cell. To this, 15 μl aliquots of the peptoid solution in the same buffer were added from a computer-controlled 250 μl rotating syringe. The syringe was set at 400 rpm with intervals of 3 minutes between injections to attain baseline stabilization. The heat absorbed or released accompanying the titration was recorded as differential power (DP) by the instrument software. Experiments were carried out with C values between 1 and 400. The total heat recorded was then fitted via a non-linear least-squares minimization method. Titration of the ligand solution with the buffer alone gave the heats of dilution. Titration with MBP alone was recorded under identical conditions.

MBP = MBP (Escherichia coli, UniProt P0AEX9); experiment: isothermal titration calorimetry (ITC), MBP alone; type: binding; settings: in solution
Experimental: as §1

MBP-Mdm2 [2] = target: T1, MBP-Mdm2; type: binding, human
Experimental: Five milligrams of TentaGel beads (displaying the respective hit sequences, Nlys-Nbsa-Nlys-Nser-Nbsa-Npip-Nbsa-Npip-CONH2 and Nbsa-Nlys-Nbsa-Npip-Nlys-CONH2 or a random sequence Npip-Nser-Nbsa-Nall-Nlys-Npip-CONH2) were equilibrated in phosphate-buffered saline (PBS) for 60 minutes. The buffer was removed and the beads were blocked with 2% BSA for 60 minutes to saturate any non-specific binding sites. The beads were then washed with PBS (3 times), and incubated with 500 nM (unless indicated otherwise) of a Texas Red-labeled protein (MBP-MDM2 or GST) in 2% BSA (in 1×TBST buffer), in a 300 μL volume for 60 minutes. The beads were washed with TBST six times to remove any unbound protein and photographed under a fluorescence microscope. Studies that employed native (unlabeled) proteins were performed as follows. Ten milligrams of beads displaying the peptoid were exposed to 1 μM protein in the presence of 1000-fold excess E. coli lysate, 0.2% Tween-20 and 0.2 M NaCl in a total volume of 2 ml at RT for 2 hrs. The beads were washed three times with TBST (20 mM Tris buffered saline+0.1% Tween-20). Ten microliters of 2×SDS-PAGE loading dye was then added directly to these beads and they were boiled for 10 mins.
To probe the binding chemistry of chimeric binding ligand formula 2 on a solid support, which is more relevant to the issue of creating high affinity protein capture agents, TentaGel beads were prepared that display either chalcone formula 1 alone, the 10 mer peptoid NH2-Nlys-Npip-Nlys-Nser-Nlys-Nlys-Nlys-Nlys-Npip-Npip alone, or the chalcone-peptoid chimeric binding element of formula 2. In the experiment shown in FIG. 24D, the beads and the Texas Red-labeled proteins (100 nM) indicated in the figure were incubated under demanding buffer conditions (1M NaCl and 1% Tween-20 in the presence of a 100-fold excess of E. coli proteins), then washed thoroughly. Two populations of beads were then mixed in a 1:1 ratio and photographed under a fluorescence microscope to provide a direct comparison.
After thorough washing, the beads were photographed in the fluorescence microscope using identical settings in each case.

solubility observations = type: physicochemical
GST = target: T2, GST (Schistosoma japonicum, UniProt P08515); experiment: isothermal titration calorimetry (ITC); type: binding; settings: in solution; read-out: equilibrium dissociation constant, ITC
T2 construct: made in house; host or cells: E. coli BL21-RIL
T2 sequence (P08515 whole entry): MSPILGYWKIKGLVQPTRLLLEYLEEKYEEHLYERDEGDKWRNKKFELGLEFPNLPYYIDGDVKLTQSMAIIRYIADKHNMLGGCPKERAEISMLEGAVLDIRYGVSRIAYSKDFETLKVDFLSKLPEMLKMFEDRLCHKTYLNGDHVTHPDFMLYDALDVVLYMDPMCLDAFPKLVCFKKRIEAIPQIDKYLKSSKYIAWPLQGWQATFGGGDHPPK
Experimental: as §1

ubiquitin = ubiquitin (Homo sapiens, UniProt P0CG47); experiment: pull-down of unlabeled ubiquitin by Tentagel-displayed peptide, probed with Texas Red-labeled anti-ubiquitin antibody; type: binding; settings: semi-quantitative
Experimental: To study the behavior of the ubiquitin-targeted chimeric binding element in capture assays, the peptide was synthesized on Tentagel and employed in “pull-down” assays. Beads displaying NH2-[…], a control peptide NH2-[…], or no peptide at all, were incubated with the indicated concentration of unlabeled ubiquitin in the presence of a 1000-fold excess of E. coli proteins (FIG. 26B). After thorough washing, the beads were then probed with Texas Red-labeled anti-ubiquitin-labeled polyclonal antibodies to visualize the bound protein. […] In all cases, the level of fluorescence from the chimeric binding element-displaying beads was much higher than from either set of control beads (see FIG. 26C for a direct comparison).

His6Gal80 [3] = target: T3, His6Gal80 (Saccharomyces cerevisiae, UniProt P04387); experiment: lysate experiment: specificity of capture from E. coli lysate (silver stain); type: binding; settings: Gal80 5% of total protein, silver staining
T3 construct: His6 (N); made in house; host or cells: E. coli
T3 sequence (P04387 1-435): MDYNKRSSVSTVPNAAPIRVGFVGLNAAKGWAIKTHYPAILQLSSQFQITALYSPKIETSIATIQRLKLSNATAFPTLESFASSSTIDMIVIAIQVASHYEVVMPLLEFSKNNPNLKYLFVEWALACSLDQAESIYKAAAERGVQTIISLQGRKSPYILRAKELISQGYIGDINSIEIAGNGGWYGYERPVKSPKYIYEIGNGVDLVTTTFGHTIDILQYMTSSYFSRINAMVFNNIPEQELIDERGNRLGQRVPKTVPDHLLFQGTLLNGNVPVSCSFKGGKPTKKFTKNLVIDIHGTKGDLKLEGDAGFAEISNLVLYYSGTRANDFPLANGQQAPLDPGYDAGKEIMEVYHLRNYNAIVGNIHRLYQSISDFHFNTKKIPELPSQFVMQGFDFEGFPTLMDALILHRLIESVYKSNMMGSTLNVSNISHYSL
Experimental: Lysate Experiment. E. coli lysate was prepared by growing BL21 cells to an OD600 of 0.8. Cells were lysed by sonication in PBS buffer. After sonication, triton X-100 was added to 1%. His6Gal80 was doped into the E. coli lysate (67 μg/mL) such that it constituted 5% of the total protein. Approximately 0.02 g of Tentagel beads on which the Gal80-binding peptide had been synthesized and deprotected were added to 300 μL of the E. coli lysate containing His6Gal80 and incubated for 2 hours at 4° C. The beads were washed four times for ten minutes each time at 4 with PBS buffer+1% triton X-100 at 150 mM NaCl at 4° C. and then twice with PBS buffer. GSTGal4 AD (activation domain) was pre-incubated with glutathione sepharose beads and then used as a positive control to pull-down His6Gal80 from the lysate under the same conditions. Gel loading dye was added directly to the beads, loaded onto a SDS polyacrylamide gel and analyzed by silver stain.
To address this point, the Gal80 bp/Gal80 pair was again employed. His6Gal80 was doped into an E. coli lysate such that Gal80 represented 5% of the total protein concentration. This solution was then incubated with the Tentagel-bound Gal80 bp followed by thorough washing to remove any unbound material. The composition of the proteins captured by the peptide was then addressed by SDS-PAGE followed by silver staining. […]

His6Gal80 [4] = target: T3, His6Gal80; experiment: capturing dilute proteins with Tentagel-bound peptide; type: binding; settings: peptide on Tentagel
Experimental: Capturing Dilute Proteins. Approximately 0.014 g of Tentagel beads displaying Gal80 binding peptide was blocked with 10% milk overnight at 4° C. The beads were divided equally into 7 tubes and incubated with 500 μL of buffer containing various amounts of His6Gal80 protein (5 to 400 ng) for 2 hours at 4° C. After washing four times with TBST buffer and twice with PBS, gel loading dye was added directly to the beads and the amount of bound His6Gal80 was determined as described above. A second gel containing known amounts of pure His6Gal80 was analyzed simultaneously and was used as a standard to quantitate the amount of His6Gal80 retained on the beads.
Efficient capture of dilute proteins. In all of the above examples, the protein was loaded onto the peptide-coated bead at a relatively high concentration (300 nM) prior to dilution. Since the concentration of most proteins of interest in a biological sample will be lower, it was of interest to evaluate the ability of a Tentagel-bound peptide to capture a dimeric protein from more dilute solutions. […] After washing, the bound protein was detected by boiling the beads in denaturing loading buffer followed by SDS-PAGE/western, blot analysis of the resulting supernatant. […] Further dilution of the protein in this assay format exceeded the sensitivity of the western blot. […]

Compound: NH2-Lys(Chalcone)-Nlys-Npip-Nlys-Nser-Nlys-Nlys-Nlys-Nlys-Npip-Npip [formula 2]
- Kd (MBP-Mdm2 [1]; in solution, read-out: equilibrium dissociation constant (KD), ITC): 1.3 µM
- improvement in affinity relative to parent compound formula 1 (MBP-Mdm2 [1]; solution, ITC): at least 170 fold
- Kd (MBP): > 6000 µM
- solid phase MBP-Mdm2 affinity relative to components (MBP-Mdm2 [2]; 100 nM protein, 1M NaCl, 1% Tween-20, 100-fold excess E. coli proteins): higher affinity for Mdm2 than does either individual component of the chimera
- lowest protein concentration at which capture of Mdm2 was apparent (MBP-Mdm2 [2]; 150 mM NaCl, 0.1% detergent, 100-fold excess E. coli proteins): 10 nM

Compound: Nmba-Nbsa-Nleu-Nlys-Npip-Nmba-Nleu-Nleu [random peptoid, reference compound]
- native MBP-Mdm2 retained (MBP-Mdm2 [2]; 1000-fold excess E. coli proteins, Western blot): No detectable MBP-Mdm2 protein was retained

Compound: NCCCCNCC(=O)N(CC(=O)N(CCCCN)CC(=O)N(CCO)CC(=O)N(CCCCN)CC(=O)N(CCCCN)CC(=O)N(CCCCN)CC(=O)N(CCCCN)CC(=O)N(CC(=O)N(CC(N)=O)Cc1ccc2c(c1)OCO2)Cc1ccc2c(c1)OCO2)Cc1ccc2c(c1)OCO2 [NH2-Nlys-Npip-Nlys-Nser-Nlys-Nlys-Nlys-Nlys-Npip-Npip] (H-[Nlys][Gly(N-piperonyl)][Nlys][Gly(N-CH2CH2OH)][Nlys][Nlys][Nlys][Nlys][Gly(N-piperonyl)][Gly(N-piperonyl)]-NH2; N-terminus and C-terminus assumed)
- Kd (MBP-Mdm2 [1]): 378 µM

Compound: PREbp: Pre1 binding peptide isolated by phage display, free synthetic peptide before six polar amino acids were added (SHSTARGEQERAAVYLWFTYDHRSER)
- solubility (solubility observations): insoluble

Compound: NCCCCN(CC(N)=O)C(=O)CN(Cc1ccc2c(c1)OCO2)C(=O)CN(CCc1ccc(S(N)(=O)=O)cc1)C(=O)CN(CCCCN)C(=O)CNCCc1ccc(S(N)(=O)=O)cc1 [Nbsa-Nlys-Nbsa-Npip-Nlys-CONH2] (H-[N(4-Sulfamoylphenethyl)Gly][Nlys][N(4-Sulfamoylphenethyl)Gly][Gly(N-piperonyl)][Nlys]-NH2)
- Kd (GST): 62 µM

Compound: CC(C)C[C@H](NC(=O)CNC(=O)[C@@H](N)Cc1c[nH]c2ccccc12)C(=O)N[C@@H](CCCNC(=N)N)C(=O)N[C@@H](C)C(=O)N[C@@H](CC(C)C)C(=O)N[C@@H](CCC(=O)O)C(=O)N[C@@H](CO)C(=O)N[C@@H](CCCNC(=N)N)C(=O)N[C@@H](Cc1c[nH]c2ccccc12)C(=O)N[C@@H](CC(=O)O)C(=O)N[C@@H](CCCNC(=N)N)C(=O)N[C@@H](Cc1ccc(O)cc1)C(=O)N[C@@H](Cc1ccc(O)cc1)C(=O)N[C@@H](Cc1ccccc1)C(=O)O (H-WGLRALESRWDRYYF-OH; C-terminus assumed)
- functional dissociation constant of immobilized chimeric binding element (ubiquitin): at least in the low nanomolar range

Compound: NCCCCNCC(=O)N(CCc1ccc(S(N)(=O)=O)cc1)CC(=O)N(CCCCN)CC(=O)N(CCO)CC(=O)N(CCc1ccc(S(N)(=O)=O)cc1)CC(=O)N(CC(=O)N(CCc1ccc(S(N)(=O)=O)cc1)CC(=O)N(CC(N)=O)Cc1ccc2c(c1)OCO2)Cc1ccc2c(c1)OCO2 [Nlys-Nbsa-Nlys-Nser-Nbsa-Npip-Nbsa-Npip] (H-[Nlys][N(4-Sulfamoylphenethyl)Gly][Nlys][Gly(N-CH2CH2OH)][N(4-Sulfamoylphenethyl)Gly][Gly(N-piperonyl)][N(4-Sulfamoylphenethyl)Gly][Gly(N-piperonyl)]-NH2)
- Kd (MBP-Mdm2 [1]): 37 µM
- Kd (MBP): > 1000 µM
- MBP-Mdm2 protein retained by immobilized peptoid (MBP-Mdm2 [2]; native protein 1 μM, 1000-fold excess E. coli proteins, Western blot): about 10%

Compound: DLQRDTNKGFHEMFDWDYQN [Ga180bpscram]
- proteins retained from Gal80-doped E. coli lysate (His6Gal80 [3]): No detectable proteins were retained

Compound: CSCC[C@H](NC(=O)[C@H](CC(=O)O)NC(=O)[C@H](CCC(N)=O)NC(=O)[C@H](CC(=O)O)NC(=O)[C@@H](N)Cc1ccc(O)cc1)C(=O)N[C@@H](CCC(N)=O)C(=O)N[C@@H](CC(N)=O)C(=O)N[C@@H](CC(N)=O)C(=O)N[C@H](C(=O)N[C@@H](Cc1ccccc1)C(=O)N[C@@H](CC(=O)O)C(=O)N[C@@H](CC(=O)O)C(=O)N[C@@H](CC(C)C)C(=O)N[C@@H](Cc1ccccc1)C(=O)N[C@@H](Cc1c[nH]c2ccccc12)C(=O)N[C@@H](CCCCN)C(=O)N[C@@H](CCC(=O)O)C(=O)NCC(=O)N[C@@H](Cc1c[nH]cn1)C(=O)N[C@@H](CCCNC(=N)N)C(=O)O)[C@@H](C)O [Ga180bp] (H-YDQDMQNNTFDDLFWKEGHR-OH; N-terminus and C-terminus assumed)
- dissociation constant of immobilized peptide for Gal80 dimer (His6Gal80 [4]): sub-nanomolar
